Assay [1] deals with Staphylococcus epidermidis. Description: Growth of S. epidermidis in LB liquid culture with test substance, OD (600 nm) versus control. To be noted: for Growth effect, promoting or inhibiting factor compared to the control: S. epidermidis. Format: cell-based. As for the experimental part:
(§1) From liquid precultures of S. epidermidis and S. hominis, cultures in LB medium with an optical density OD (600 nm) of 0.05 were inoculated. In parallel to the controls (without the addition of cells or extract), in each case 2 cultures were treated with 1% plant extract and the growth was documented over 30 h by reference to the OD measurement. After 30 h, the difference in the OD of the cultures with extract additive to the corresponding controls (without extract additive, corrected by the value without cells) was determined.
(§2) From liquid precultures of S. epidermidis and S. hominis, cultures in LB medium with an optical density OD (600 nm) of 0.05 were inoculated. In parallel to the controls (without the addition of cells or extract), in each case 2 cultures were treated with 1% plant extract and the growth was documented over 30 h by reference to the OD measurement. After 30 h, the difference in the OD of the cultures with extract additive to the corresponding controls (without extract additive, corrected by the value without cells) was determined. Various hibiscus extracts from Cosmetochem were used, namely “herbasol extract unpreserved carcade in 80% PG,” “carcade (hibiscus) herbasec” and “carcade (hibiscus) herbasol extract oil-soluble.”
(§3) From liquid precultures of S. epidermidis and S. hominis, cultures in LB medium with an optical density OD (600 nm) of 0.05 were inoculated. In parallel to the controls (without the addition of cells or myristate), in each case 2 cultures were treated with 1% myristate derivative and the growth was documented over 8 h by reference to the OD measurement. After 8 h, the difference in the OD of the cultures with myristate additive to the corresponding controls (without myristate additive, corrected by the value without cells) was determined.
(§4) From liquid precultures of S. epidermidis and S. hominis, cultures in LB medium with an optical density OD (600 nm) of 0.05 were inoculated. In parallel to the controls [without the addition of cells or ethylhexyl glycerol (Sensiva SC 50, Schülke&Mayr)], in each case 2 cultures were treated with 0.1% ethylhexyl glycerol and the growth was documented over 24 h by reference to the OD measurement. After 4 h, 8 h and 24 h, the difference in the OD of the cultures with ethylhexyl glycerol to the corresponding controls (without extract additive, corrected by the value without cells) was determined.

Assay [2] relates to Staphylococcus hominis. The experiment in a line: Growth of S. hominis in LB liquid culture with test substance, OD (600 nm) versus control. The following applies: for Growth effect, promoting or inhibiting factor compared to the control: S. hominis. Format: cell-based. How it is done:
as §1, §2, §3, §4

Where [3] appears, read: 1% myristate derivative, after 8 h, LB medium, OD 600 nm.

With `CCCCCCCCCCCCCC(=O)OC(C)C` [Isopropyl myristate, isopropyl myristate], the “Effect on growth of S. epidermidis (in words)” value in assay [1] (1% myristate derivative, 8 h) is on record as “moderate promotion of S. epidermidis”. The “Growth effect, promoting or inhibiting factor compared to the control” value in assay [1] (setting [3]) is reported as 1.24; in assay [2] (setting [3]), 0.50. The “Effect on growth of S. hominis (in words)” value in assay [2] (1% myristate derivative, 8 h) is listed as “inhibiting action on S. hominis”.
As to `CCCCCCCCCCCCCC(=O)OCC` [Ethyl myristate, ethyl myristate], in assay [1] (1% myristate derivative, 8 h), the “Effect on growth of S. epidermidis (in words)” value is reported as “moderate promotion of S. epidermidis”. Also, the entries for the “Growth effect, promoting or inhibiting factor compared to the control” value in assay [1] (setting [3]) and in assay [2] (setting [3]) were 1.44 and 0.22, respectively. Moreover, in assay [2] (1% myristate derivative, 8 h), the “Effect on growth of S. hominis (in words)” value is reported as “inhibiting action on S. hominis”.
As for `CCCCC(CC)COCC(O)CO` (stereo not drawn) [ethylhexyl glycerol, 1-(2-Ethylhexyl) glycerol ether], the “Growth effect, promoting or inhibiting factor compared to the control” value in assay [1] (0.1% ethylhexyl glycerol, 4 h) worked out at 1.06; in assay [1] (0.1% ethylhexyl glycerol, 8 h) it was 1.06; in assay [1] (0.1% ethylhexyl glycerol, 24 h), 1.10; in assay [2] (0.1% ethylhexyl glycerol, 4 h), 0.87; in assay [2] (0.1% ethylhexyl glycerol, 8 h), 0.92; in assay [2] (0.1% ethylhexyl glycerol, 24 h), 0.76. The “Effect on growth of S. hominis (in words)” value in assay [2] (0.1% ethylhexyl glycerol, up to 24 h) was “inhibits S. hominis”.

Values taken from patent US20070190004A1, “Substances with a probiotic action used in deodorants” (priority 2004, published 2007).
